Measured values from the supplement of paper PMC10307832.

Assays:
Experiment in all cases: relative viability (nuclei count vs DMSO), 5 days (fraction); higher = more cells survive
BGJ398 + Bortezomib = compound: CCN1CCN(c2ccc(Nc3cc(N(C)C(=O)Nc4c(Cl)c(OC)cc(OC)c4Cl)ncn3)cc2)CC1 [BGJ398] + CC(C)C[C@H](NC(=O)[C@H](Cc1ccccc1)NC(=O)c1cnccn1)B(O)O [Bortezomib] (partner 0.002 µM)
How it was run: (§1)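 One day after seeding in 1536-well plates, lung cancer cell lines were dosed by pin tool. Dosing was either single-drug or a fixed anchor-drug dose plus five library-drug doses (not always all listed) in √10 steps. After 5 days, nuclei were stained in one fix-and-stain step and counted on 4× images, and relative viability is the nuclei count of treated wells over that of vehicle wells, given as the median of duplicate plates.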

[1] = compound: C1=CC2=NC=CN=C2C=C1/C=C/3\C(=O)NC(=O)S3 + Cc1nc(NC(=O)N2CCC[C@H]2C(N)=O)sc1-c1ccnc(C(C)(C)C(F)(F)F)c1 [Alpelisib] (partner 2 µM)
How it was run: as §1

BGJ398 + Palbociclib = compound: CCN1CCN(c2ccc(Nc3cc(N(C)C(=O)Nc4c(Cl)c(OC)cc(OC)c4Cl)ncn3)cc2)CC1 [BGJ398] + CC(=O)c1c(C)c2cnc(Nc3ccc(N4CCNCC4)cn3)nc2n(C2CCCC2)c1=O [Palbociclib] (partner 0.5 µM)
How it was run: as §1

BGJ398 + AZD7762 = compound: CCN1CCN(c2ccc(Nc3cc(N(C)C(=O)Nc4c(Cl)c(OC)cc(OC)c4Cl)ncn3)cc2)CC1 [BGJ398] + NC(=O)Nc1cc(-c2cccc(F)c2)sc1C(=O)N[C@H]1CCCNC1 [AZD7762] (partner 0.2 µM)
How it was run: as §1

Cell Line	relative viability (BGJ398 + Bortezomib; first compound 0.01 µM)	relative viability (BGJ398 + Bortezomib; first compound 0.03162 µM)	relative viability (BGJ398 + Bortezomib; first compound 0.1 µM)	relative viability (BGJ398 + Bortezomib; first compound 0.3162 µM)	relative viability (BGJ398 + Bortezomib; first compound 1 µM)	relative viability ([1]; first compound 0.02 µM)	relative viability ([1]; first compound 0.06325 µM)	relative viability ([1]; first compound 0.2 µM)	relative viability ([1]; first compound 0.6325 µM)	relative viability ([1]; first compound 2 µM)	relative viability (BGJ398 + Palbociclib; first compound 0.01 µM)	relative viability (BGJ398 + Palbociclib; first compound 0.03162 µM)	relative viability (BGJ398 + Palbociclib; first compound 0.1 µM)	relative viability (BGJ398 + Palbociclib; first compound 0.3162 µM)	relative viability (BGJ398 + Palbociclib; first compound 1 µM)	relative viability (BGJ398 + AZD7762; first compound 0.01 µM)	relative viability (BGJ398 + AZD7762; first compound 0.03162 µM)	relative viability (BGJ398 + AZD7762; first compound 0.1 µM)	relative viability (BGJ398 + AZD7762; first compound 0.3162 µM)	relative viability (BGJ398 + AZD7762; first compound 1 µM)
LU99A	1.08	1.23	1.23	1.13	1.09	0.575	0.562	0.607	0.501	0.393	0.426	0.442	0.438	0.392	0.364	0.429	0.336	0.4	0.234	0.273
ABC-1	0.306	0.34	0.287	0.321	0.299	1	1.14	0.933	1.01	1.02	0.647	0.593	0.584		0.945	0.713	0.964	0.898	0.572	1.13
NCI-H2347	0.737	0.835	0.9	0.88	0.784	1.02	1.09	1.08	1.07	1.02	0.427	0.467	0.477	0.47	0.422	0.811	0.801	0.837	0.814	0.851
NCI-H1993	1.17	0.753	1.2	1.23	1.19	0.661	0.743	0.634	0.553	0.602	0.674	0.639	0.655	0.692	0.724	0.953	0.85	0.593	0.94	0.803
NCI-H322M	1.14	0.989	1.21	1.21	1.24	0.835	0.713	0.74	0.852	0.67	0.493	0.43	0.472	0.491	0.521	0.689	0.46	0.577	0.607	0.601
NCI-H838	0.636	0.921	0.655	0.776	0.5	0.989	1.16	1	1.04	0.913	0.203	0.203	0.217	0.22	0.195	0.861	0.915	1.04	0.782	0.756
HARA	1.15	1.05	1.13	1.08	0.978	0.749	0.696	0.844	0.806	0.859	0.242	0.257	0.228	0.289	0.188	0.429	0.418	0.461	0.373	0.334
NCI-H2087	0.725	0.699	0.806	0.848	0.602	0.965	1.3	1.09	1.11	1.2	0.266	0.224	0.204	0.282	0.184	1.13	1.23	1.23	1.45	1.5
